± gives the standard deviation of the averaged measurements.
Legend:
Test in all cases: level (log10 ratio to DMSO vehicle control); higher = higher biomarker level / cell amount than vehicle control
[1] = compound: Cc1ccc(S(=O)(=O)OCC(F)(F)C(F)(F)C(F)(F)C(F)(F)C(F)(F)C(F)F)cc1 [1H,1H,7H-Perfluoroheptyl 4-methylbenzenesulfonate]; settings: in DMSO
Description: (§1)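 BioMAP Diversity Plus panel of 12 human primary cell co-culture systems (3C, 4H, LPS, SAg, BT, BF4T, BE3C, CASM3C, HDF3CGF, KF3CT, MyoF, Mphg). Compounds were added 1 h before stimulation and left for 24 h (MyoF 48 h; BT 72 h for soluble read-outs or 6 d for IgG). Biomarkers were read by ELISA, cytotoxicity by SRB, PBMC viability and proliferation by Alamar Blue. Each well value was divided by the mean of 8 DMSO control wells on the same plate and log10 transformed; duplicate blinded samples were tested at 4 concentrations.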

[2] = compound: OCCC(F)(F)C(F)(F)C(F)(F)C(F)(F)C(F)(F)C(F)(F)C(F)(F)C(F)(F)F [8:2 Fluorotelomer alcohol]; settings: 6700 nM; in DMSO
Description: as §1

[3] = compound: C=CC(=O)OCC(F)(F)C(F)(F)C(F)(F)C(F)(F)COC(=O)C=C [1H,1H,6H,6H-Perfluorohexane-1,6-diol diacrylate]; settings: 6700 nM; in DMSO
Description: as §1

[4] = compound: FC(F)(F)COC(OCC(F)(F)F)OCC(F)(F)F [tris(Trifluoroethoxy)methane]; settings: in DMSO
Description: as §1

[5] = compound: C=C(C)C(=O)OCC(F)(F)C(F)(F)C(F)(F)F [2,2,3,3,4,4,4-Heptafluorobutyl methacrylate]; settings: in DMSO
Description: as §1

Perfluorooctanoic acid = compound: O=C(O)C(F)(F)C(F)(F)C(F)(F)C(F)(F)C(F)(F)C(F)(F)C(F)(F)F [Perfluorooctanoic acid]; settings: in DMSO
Description: as §1

[6] = compound: FC(F)(F)C(F)(F)C(F)(F)C(F)(F)CCI [1H,1H,2H,2H-Perfluorohexyl iodide]; settings: in DMSO
Description: as §1

[7] = compound: C=CC(=O)OCC(F)(F)C(F)(F)C(F)(F)C(F)(F)C(F)(F)C(F)(F)C(F)(F)C(F)F [1H,1H,9H-Perfluorononyl acrylate]; settings: in DMSO
Description: as §1

Test System | level (log10) ([1]; 6700 nM) | level (log10) ([1]; 20000 nM) | level (log10) ([1]; 60000 nM) | level (log10) [2] | level (log10) [3] | level (log10) ([4]; 6700 nM) | level (log10) ([4]; 20000 nM) | level (log10) ([4]; 60000 nM) | level (log10) ([5]; 6700 nM) | level (log10) ([5]; 20000 nM) | level (log10) ([5]; 60000 nM) | level (log10) (Perfluorooctanoic acid; 6700 nM) | level (log10) (Perfluorooctanoic acid; 20000 nM) | level (log10) (Perfluorooctanoic acid; 60000 nM) | level (log10) ([6]; 6700 nM) | level (log10) ([6]; 20000 nM) | level (log10) ([6]; 60000 nM) | level (log10) ([7]; 6700 nM) | level (log10) ([7]; 20000 nM) | level (log10) ([7]; 60000 nM)
BT:sIL-2 | 0.0615 ± 0.0021 | 0.0305 ± 0.042 | -0.0025 ± 0.14 | 0.001 ± 0.052 | -0.461 ± 0.18 | -0.0155 ± 0.016 | 0.0015 ± 0.021 | 0.029 ± 0.025 | 0.0115 ± 0.035 | 0.026 ± 0.082 | -0.0115 ± 0.042 | 0.0385 ± 0.11 | 0.039 ± 0.093 | 0.046 ± 0.12 | 0.0565 ± 0.029 | -0.0065 ± 0.0021 | -0.056 ± 0.057 | 0.118 ± 0.042 | -0.0285 ± 0.11 | -0.514 ± 0.61
SAg:CCL2/MCP-1 | -0.024 ± 0.016 | -0.027 ± 0.011 | -0.021 ± 0.023 | 0.0025 ± 0.0035 | -0.0875 ± 0.04 | -0.0215 ± 0.0035 | -0.0215 ± 0.0064 | 0.0105 ± 0.022 | 0.0075 ± 0.012 | -0.011 ± 0.0028 | 0.017 ± 0.011 | 0.0005 ± 0.0021 | 0.0025 ± 0.011 | 0.048 ± 0.0057 | -0.0075 ± 0.015 | 0.004 ± 0.0014 | -0.015 ± 0.018 | -0.0425 ± 0.015 | -0.0565 ± 0.005 | -0.033 ± 0.13
BT:PBMC Cytotoxicity | -0.017 ± 0.0057 | 0.008 ± 0.0014 | -0.017 | 0.001 ± 0.038 | -0.186 ± 0.0042 | 0.002 ± 0.033 | 0.005 ± 0.035 | 0.006 ± 0.0057 | 0.0065 ± 0.035 | 0.005 ± 0.03 | 0.004 ± 0.055 | -0.001 ± 0.028 | 0.0565 ± 0.013 | 0.105 ± 0.033 | -0.024 ± 0.0014 | -0.042 ± 0.0099 | -0.0045 ± 0.029 | -0.047 ± 0.0085 | -0.1 ± 0.0085 | -0.287 ± 0.1
SAg:Proliferation | -0.0085 ± 0.07 | -0.011 ± 0.0085 | -0.0335 ± 0.086 | -0.064 ± 0.028 | -0.296 ± 0.063 | -0.012 ± 0.0014 | 0.013 ± 0.04 | 0.007 ± 0.013 | -0.042 ± 0.069 | -0.004 ± 0.03 | -0.0045 ± 0.033 | 0.044 ± 0.0085 | 0.041 | 0.016 ± 0.025 | -0.0205 ± 0.0078 | -0.043 ± 0.013 | -0.155 ± 0.014 | -0.024 ± 0.0014 | -0.166 ± 0.029 | -0.58 ± 0.14
BF4T:CCL26/Eotaxin-3 | -0.0095 ± 0.046 | -0.077 ± 0.068 | -0.095 ± 0.018 | -0.106 ± 0.012 | -0.055 ± 0.025 | 0.0055 ± 0.025 | -0.011 ± 0.0014 | 0.012 ± 0.0057 | 0.032 ± 0.069 | 0.0385 ± 0.05 | 0.0235 ± 0.052 | -0.023 ± 0.023 | -0.073 ± 0.013 | -0.11 ± 0.06 | -0.032 ± 0.017 | -0.0525 ± 0.036 | -0.098 ± 0.073 | -0.0095 ± 0.061 | -0.066 ± 0.078 | -0.084 ± 0.018
LPS:CXCL8/IL-8 | 0.0265 ± 0.015 | 0.008 ± 0.014 | 0.0195 ± 0.0021 | -0.0375 ± 0.029 | -0.0205 ± 0.028 | -0.0245 ± 0.049 | -0.0285 ± 0.022 | 0.0315 ± 0.08 | -0.001 ± 0.016 | 0.0055 ± 0.012 | 0.0145 ± 0.0092 | 0.0155 ± 0.021 | 0.033 ± 0.014 | 0.146 ± 0.057 | 0.008 ± 0.034 | 0.021 ± 0.033 | 0.0375 ± 0.057 | -0.001 ± 0.047 | 0.0095 ± 0.023 | -0.023 ± 0.028
BF4T:SRB | -0.003 ± 0.0042 | -0.008 ± 0.0028 | -0.015 ± 0.0099 | -0.0095 ± 0.0035 | -0.01 ± 0.0014 | -0.0065 ± 0.0064 | -0.0085 ± 0.00071 | -0.003 ± 0.014 | -0.003 ± 0.0042 | -0.011 ± 0.0071 | 0.0315 ± 0.039 | -0.008 ± 0.0099 | 0.0015 ± 0.0064 | -0.0005 ± 0.013 | -0.009 ± 0.0028 | -0.0055 ± 0.005 | -0.0035 ± 0.0078 | -0.0045 ± 0.005 | -0.001 ± 0.016 | 0.0065 ± 0.021
3C:SRB | 0.006 ± 0.0071 | -0.016 ± 0.013 | -0.125 ± 0.0042 | -0.014 ± 0.0099 | -0.0015 ± 0.028 | -0.02 | -0.0035 ± 0.00071 | -0.006 ± 0.02 | -0.0125 ± 0.0021 | -0.001 ± 0.0057 | 0.0035 ± 0.00071 | -0.017 ± 0.0042 | 0.0045 ± 0.019 | -0.102 ± 0.044 | 0.0005 ± 0.018 | 0.004 ± 0.013 | -0.006 ± 0.0028 | 0.0015 ± 0.0078 | 0.016 ± 0.0042 | -0.014 ± 0.023
LPS:CD69 | -0.026 ± 0.048 | -0.0665 ± 0.088 | -0.055 | -0.063 ± 0.11 | -0.052 ± 0.023 | -0.0085 ± 0.015 | 0.012 ± 0.017 | 0.0295 ± 0.018 | -0.019 ± 0.013 | -0.024 ± 0.028 | -0.024 ± 0.011 | 0.0445 ± 0.096 | 0.0475 ± 0.046 | -0.025 ± 0.092 | 0 ± 0.013 | -0.008 ± 0.0071 | 0.0085 ± 0.011 | -0.0345 ± 0.011 | -0.062 ± 0.011 | -0.102 ± 0.023
3C:CXCL8/IL-8 | -0.0075 ± 0.0021 | -0.0245 ± 0.0078 | -0.061 ± 0.017 | -0.003 ± 0.034 | 0.017 ± 0.024 | -0.007 ± 0.016 | -0.0085 ± 0.005 | 0.003 ± 0.013 | 0.0395 ± 0.042 | 0.039 ± 0.0014 | 0.051 ± 0.04 | 0.0295 ± 0.035 | 0.0585 ± 0.026 | 0.154 ± 0.0057 | -0.0135 ± 0.018 | -0.007 ± 0.014 | 0.0495 ± 0.00071 | 0.001 ± 0.03 | 0.02 ± 0.023 | 0.029 ± 0.033
BF4T:MMP-9 | 0.0045 ± 0.012 | -0.008 ± 0.011 | -0.0435 ± 0.023 | -0.0325 ± 0.0078 | 0.0005 ± 0.00071 | 0.015 ± 0.061 | 0.0075 ± 0.049 | 0.0205 ± 0.033 | -0.015 ± 0.025 | -0.0265 ± 0.0078 | 0.0195 ± 0.049 | -0.006 ± 0.0057 | 0.02 ± 0.013 | 0.0215 ± 0.013 | 0.0085 ± 0.022 | 0.01 ± 0.047 | 0.02 ± 0.052 | 0.0145 ± 0.019 | 0.0235 ± 0.019 | 0.031 ± 0.0014
BE3C:CXCL10/IP-10 | -0.0095 ± 0.0092 | -0.033 ± 0.016 | -0.015 ± 0.0014 | -0.0515 ± 0.057 | -0.0095 ± 0.0064 | -0.001 ± 0.0085 | -0.0035 ± 0.018 | 0.0095 ± 0.0021 | 0.0365 ± 0.029 | 0.0225 ± 0.04 | 0.0135 ± 0.035 | -0.021 ± 0.017 | -0.0275 ± 0.013 | -0.118 ± 0.022 | 0.008 ± 0.0099 | 0.0015 ± 0.0092 | 0.001 ± 0.021 | -0.01 ± 0.016 | 0 ± 0.0014 | -0.005 ± 0.0099

Source: the supplement of paper PMC10331698
